# Data from patent US9650361B2, “N-(pyridin-2-yl)pyrimidin-4-amine derivatives containing a sulfoximine group” (BAYER PHARAM AKTIENGESELLSCHAFT, priority 2012, dated 2017).
# How the values were obtained:
# HeLa cells = assay: Proliferation assay, HeLa (Method 3); format: cell-based, human; conditions: Homo sapiens, HeLa, 96 h, 4 days, crystal violet; read-out: Inhibition of HeLa cell proliferation IC50
# Experimental: Cultivated tumour cells (HeLa, human cervical tumour cells, ATCC CCL-2; NCI-H460, human non-small cell lung carcinoma cells, ATCC HTB-177; A2780, human ovarian carcinoma cells, ECACC #93112519; DU 145, hormone-independent human prostate carcinoma cells, ATCC HTB-81; HeLa-MaTu-ADR, multidrug-resistant human cervical carcinoma cells, EPO-GmbH Berlin; Caco-2, human colorectal carcinoma cells, ATCC HTB-37; B16F10, mouse melanoma cells, ATCC CRL-6475) were plated at a density of 5,000 cells/well (DU145, HeLa-MaTu-ADR), 3,000 cells/well (NCI-H460, HeLa), 2,500 cells/well (A2780), 1,500 cells/well (Caco-2), or 1,000 cells/well (B16F10) in a 96-well multititer plate in 200 μL of their respective growth medium supplemented 10% fetal calf serum. After 24 hours, the cells of one plate (zero-point plate) were stained with crystal violet (see below), while the medium of the other plates was replaced by fresh culture medium (200 μl), to which the test substances were added in various concentrations (0 μM, as well as in the range of 0.001-10 μM; the final concentration of the solvent dimethyl sulfoxide was 0.5%). The cells were incubated for 4 days in the presence of test substances. Cell proliferation was determined by staining the cells with crystal violet: the cells were fixed by adding 20 μl/measuring point of an 11% glutaric aldehyde solution for 15 minutes at room temperature. After three washing cycles of the fixed cells with water, the plates were dried at room temperature. The cells were stained by adding 100 μl/measuring point of a 0.1% crystal violet solution (pH 3.0). After three washing cycles of the stained cells with water, the plates were dried at room temperature. The dye was dissolved by adding 100 μl/measuring point of a 10% acetic acid solution. The extinction was determined by photometry at a wavelength of 595 nm. The change of cell number, in percent, was calculated by normalization of the measured values to the extinction values of the zero-point plate (=0%) and the extinction of the untreated (0 μm) cells (=100%). The IC50 values (inhibitory concentration at 50% of maximal effect) were determined by means of a 4 parameter fit.
# CDK9/CycT1 = biological target: T1, CDK9/CycT1 (Homo sapiens, UniProt P50750); assay: CDK9/CycT1 high ATP kinase assay (Method 1b); format: biochemical; conditions: 2 mM ATP
# T1 construct: Recombinant full-length His-tagged human CDK9 and CycT1; His; purchased Invitrogen PV4131; host or cells: insect cells
# Experimental: 1b. CDK9/CycT1 High ATP Kinase Assay
# CDK9/CycT1-inhibitory activity of compounds of the present invention at a high ATP concentration after preincubation of enzyme and test compounds was quantified employing the CDK9/CycT1 TR-FRET assay as described in the following paragraphs.
# Recombinant full-length His-tagged human CDK9 and CycT1, expressed in insect cells and purified by Ni-NTA affinity chromatography, were purchase from Invitrogen (Cat. No PV4131). As substrate for the kinase reaction biotinylated peptide biotin-Ttds-YISPLKSPYKISEG (C-terminus in amid form) was used which can be purchased e.g. form the company JERINI peptide technologies (Berlin, Germany).
# For the assay 50 nl of a 100 fold concentrated solution of the test compound in DMSO was pipetted into a black low volume 384 well microtiter plate (Greiner Bio-One, Frickenhausen, Germany), 2 μl of a solution of CDK9/CycT1 in aqueous assay buffer [50 mM Tris/HCl pH 8.0, 10 mM MgCl2, 1.0 mM dithiothreitol, 0.1 mM sodium ortho-vanadate, 0.01% (v/v) Nonidet-P40 (Sigma)] were added and the mixture was incubated for 15 min at 22° C. to allow pre-binding of the test compounds to the enzyme before the start of the kinase reaction. Then the kinase reaction was started by the addition of 3 μl of a solution of adenosine-tri-phosphate (ATP, 3.3 mM=>final conc. in the 5 μl assay volume is 2 mM) and substrate (1.67 μM=>final conc. in the 5 μl assay volume is 1 μM) in assay buffer and the resulting mixture was incubated for a reaction time of 25 min at 22° C. The concentration of CDK9/CycT1 was adjusted depending of the activity of the enzyme lot and was chosen appropriate to have the assay in the linear range, typical concentrations were in the range of 0.5 μg/ml. The reaction was stopped by the addition of 5 μl of a solution of TR-FRET detection reagents (0.2 μM streptavidine-XL665 [Cisbio Bioassays, Codolet, France] and 1 nM anti-RB(pSer807/pSer811)-antibody from BD Pharmingen [#558389] and 1.2 nM LANCE EU-W1024 labeled anti-mouse IgG antibody [Perkin-Elmer, product no. AD0077]) in an aqueous EDTA-solution (100 mM EDTA, 0.2% (w/v) bovine serum albumin in 100 mM HEPES/NaOH pH 7.0).
# The resulting mixture was incubated 1 h at 22° C. to allow the formation of complex between the phosphorylated biotinylated peptide and the detection reagents. Subsequently the amount of phosphorylated substrate was evaluated by measurement of the resonance energy transfer from the Eu-chelate to the streptavidine-XL. Therefore, the fluorescence emissions at 620 nm and 665 nm after excitation at 350 nm was measured in a HTRF reader, e.g. a Rubystar (BMG Labtechnologies, Offenburg, Germany) or a Viewlux (Perkin-Elmer). The ratio of the emissions at 665 nm and at […] was taken as the measure for the amount of phosphorylated substrate. The data were normalised (enzyme reaction without inhibitor=0% inhibition, all other assay components but no enzyme=100% inhibition).
# T1 sequence (P50750 whole entry): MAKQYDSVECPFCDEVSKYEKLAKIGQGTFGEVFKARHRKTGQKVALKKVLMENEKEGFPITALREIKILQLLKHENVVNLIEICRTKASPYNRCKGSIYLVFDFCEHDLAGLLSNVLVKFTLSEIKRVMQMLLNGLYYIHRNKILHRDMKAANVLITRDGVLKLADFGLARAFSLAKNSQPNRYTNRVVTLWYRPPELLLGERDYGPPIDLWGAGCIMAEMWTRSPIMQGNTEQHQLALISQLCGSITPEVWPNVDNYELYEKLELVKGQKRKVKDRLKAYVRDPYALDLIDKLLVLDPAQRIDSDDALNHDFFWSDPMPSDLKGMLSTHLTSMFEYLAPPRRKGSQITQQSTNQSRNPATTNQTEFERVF
# T1 sequence (O60563 whole entry partner): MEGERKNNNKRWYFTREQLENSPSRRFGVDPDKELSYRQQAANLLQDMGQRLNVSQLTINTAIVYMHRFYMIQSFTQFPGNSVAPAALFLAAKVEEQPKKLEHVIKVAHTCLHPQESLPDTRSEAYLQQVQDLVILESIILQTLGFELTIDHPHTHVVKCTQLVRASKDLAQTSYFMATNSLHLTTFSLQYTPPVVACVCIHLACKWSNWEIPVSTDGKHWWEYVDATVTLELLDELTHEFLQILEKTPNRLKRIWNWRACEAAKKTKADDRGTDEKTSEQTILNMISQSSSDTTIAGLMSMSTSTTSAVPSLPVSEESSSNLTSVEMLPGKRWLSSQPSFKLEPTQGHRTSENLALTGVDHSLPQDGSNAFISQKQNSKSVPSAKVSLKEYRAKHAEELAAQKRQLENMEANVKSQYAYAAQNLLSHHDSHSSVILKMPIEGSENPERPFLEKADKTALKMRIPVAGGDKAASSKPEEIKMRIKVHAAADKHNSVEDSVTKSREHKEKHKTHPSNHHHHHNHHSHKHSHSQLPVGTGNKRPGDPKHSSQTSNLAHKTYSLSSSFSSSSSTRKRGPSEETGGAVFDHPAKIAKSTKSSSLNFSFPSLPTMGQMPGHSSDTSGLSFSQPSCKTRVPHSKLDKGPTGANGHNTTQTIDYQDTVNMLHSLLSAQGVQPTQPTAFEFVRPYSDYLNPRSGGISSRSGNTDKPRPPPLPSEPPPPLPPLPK
compound,measurement,setting,value
"CCS(=N)(=O)Cc1ccnc(Nc2cc(-c3ccc(F)cc3OC)ncn2)c1 (racemic) [Example 11, (rac)-N-{4-[(S-Ethylsulfonimidoyl)methyl]pyridin-2-yl}-6-(4-fluoro-2-methoxyphenyl)pyrimidin-4-amine]",IC50,HeLa cells,338 nM
same,IC50,CDK9/CycT1,194 nM
